“Also recorded” adds a separate entry of the source.

In one assay the test system is PC-3. The assay can be described thus: Growth (cell count) of PC-3 under iberiotoxin/17β-estradiol treatment. Type of assay: cell-based, human. The conditions noted are these: two days. On the procedure: (§1) “K” represents a control; “I” represents treatment with 0.05 μM Iberiotoxin (Sigma); “E” represents treatment with 0.1 μM Estradiol; and “E+I” represents treatment with both 0.05 μM Iberiotoxin and 0.1 μM Estradiol. Cells were grown in OPTI-MEM (Invitrogen) +0.4% Albu-max (Invitrogen) for two days.
(§2) Cell culture: As standard, the cells were grown in OPTIMEM (Invitrogen) containing 10% FCS (Amimed) and 1% Pen/Strep (Amimed). For iberiotoxin/17β-estradiol treatment 25000 cells were seeded in OPTIMEM, 10% FCS into 6 well plates (Falcon). After one day incubation, the medium was changed to OPTIMEM 1%FCS, 1% Pen/Strep. After another day of incubation the experiment was started by changing the Medium to OPTIMEM 0.4% Albumax (Invitrogen), 1% Pen/Strep containing either only solvents, 50 nM iberiotoxin (Sigma), 100 nM 17β-estradiol (Sigma), or a combination of both. After two days of incubation, the cells were collected and counted.

The next assay has as its system LNCaP. The assay can be described thus: Growth (cell count) of LNCaP under iberiotoxin/17β-estradiol treatment. Type of assay: cell-based, human. As to conditions: two days; for effect on estradiol-stimulated growth of LNCaP: 0.05 μM Iberiotoxin + 0.1 μM Estradiol. On the procedure:
as §1, §2

A further assay deals with BPH-1. Kind of assay: Growth (cell count) of BPH-1 under iberiotoxin/17β-estradiol treatment. As to conditions: two days; for effect on estradiol-stimulated growth of BPH-1: 0.05 μM Iberiotoxin + 0.1 μM Estradiol. Type of assay: cell-based, human. On the procedure:
as §1, §2

Assay [1] has as its target T1, potassium channels in membrane patches of PC-3 cells (Homo sapiens, UniProt Q12791).
T1 construct: endogenous in cells; host or cells: PC-3 prostate cancer cells (excised inside/out membrane patches)
Kind of assay: Patch clamp, cell excised inside/out membrane patches of PC-3 cells. Type of assay: cell-based. The conditions noted are these: preliminary. The source says:
(§3) Numerous channels are active under high (1 mmol/l) intracellular Ca^2+ concentration in the membrane patch from PC-3 cells (A), thus single channel currents cannot be resolved. In contrast, little channel activity is present in the BPH-1 membrane patch (B).
(§4) Patch clamp recording was used to further assess the role of KCNMA1.
(§5) The membrane voltage of PC-3 cells is hyperpolarized when compared with that of BPH-1 cells. Moreover, paxillin inhibited potassium channels in cell excised inside/out membrane patches of PC-3 cells, but not in membrane patches of BPH-1 cells. In cell excised inside/out membrane patches of PC-3 cells we found pronounced activity of Ca^2+ activated K^+ channels, while little channel activity was found in excised membrane patches of BPH-1 cells (FIG. 10). Removal of Ca^2+ from the cytosolic side (0 mmol/l) abolished channel activity in both membrane patches of PC-3 and BPH-1 cells. Channel activity was recovered at cytosolic Ca^2+ concentrations of 1 μmol/l (0.001). These preliminary results fit very well to the expression data of KCNMA1 obtained so far.

The test system of assay [2] is potassium channels in membrane patches of BPH-1 cells. The assay can be described thus: Patch clamp, cell excised inside/out membrane patches of BPH-1 cells. As to conditions: preliminary. The format is cell-based, human.
From the text: as §3, §4, §5
(In general: Patch clamp records ionic current or voltage across a cell membrane.)

Assay [3] concerns whole cell conductances of PC-3 cells. Kind of assay: Whole cell patch clamp, PC-3 cells. The format is cell-based, human. The conditions noted are these: iberiotoxin 30 nM, preliminary.
In assay [4] the test system is whole cell conductances of BPH-1 cells. Kind of assay: Whole cell patch clamp, BPH-1 cells. Type of assay: cell-based, human. The conditions noted are these: iberiotoxin 30 nM, preliminary.
Where [5] appears, read: 100 nM 17β-estradiol, listed as 17β-estradiol.
Setting [6] is: 50 nM iberiotoxin, listed as Iberiotoxin.

T1 sequence (Q12791 whole entry): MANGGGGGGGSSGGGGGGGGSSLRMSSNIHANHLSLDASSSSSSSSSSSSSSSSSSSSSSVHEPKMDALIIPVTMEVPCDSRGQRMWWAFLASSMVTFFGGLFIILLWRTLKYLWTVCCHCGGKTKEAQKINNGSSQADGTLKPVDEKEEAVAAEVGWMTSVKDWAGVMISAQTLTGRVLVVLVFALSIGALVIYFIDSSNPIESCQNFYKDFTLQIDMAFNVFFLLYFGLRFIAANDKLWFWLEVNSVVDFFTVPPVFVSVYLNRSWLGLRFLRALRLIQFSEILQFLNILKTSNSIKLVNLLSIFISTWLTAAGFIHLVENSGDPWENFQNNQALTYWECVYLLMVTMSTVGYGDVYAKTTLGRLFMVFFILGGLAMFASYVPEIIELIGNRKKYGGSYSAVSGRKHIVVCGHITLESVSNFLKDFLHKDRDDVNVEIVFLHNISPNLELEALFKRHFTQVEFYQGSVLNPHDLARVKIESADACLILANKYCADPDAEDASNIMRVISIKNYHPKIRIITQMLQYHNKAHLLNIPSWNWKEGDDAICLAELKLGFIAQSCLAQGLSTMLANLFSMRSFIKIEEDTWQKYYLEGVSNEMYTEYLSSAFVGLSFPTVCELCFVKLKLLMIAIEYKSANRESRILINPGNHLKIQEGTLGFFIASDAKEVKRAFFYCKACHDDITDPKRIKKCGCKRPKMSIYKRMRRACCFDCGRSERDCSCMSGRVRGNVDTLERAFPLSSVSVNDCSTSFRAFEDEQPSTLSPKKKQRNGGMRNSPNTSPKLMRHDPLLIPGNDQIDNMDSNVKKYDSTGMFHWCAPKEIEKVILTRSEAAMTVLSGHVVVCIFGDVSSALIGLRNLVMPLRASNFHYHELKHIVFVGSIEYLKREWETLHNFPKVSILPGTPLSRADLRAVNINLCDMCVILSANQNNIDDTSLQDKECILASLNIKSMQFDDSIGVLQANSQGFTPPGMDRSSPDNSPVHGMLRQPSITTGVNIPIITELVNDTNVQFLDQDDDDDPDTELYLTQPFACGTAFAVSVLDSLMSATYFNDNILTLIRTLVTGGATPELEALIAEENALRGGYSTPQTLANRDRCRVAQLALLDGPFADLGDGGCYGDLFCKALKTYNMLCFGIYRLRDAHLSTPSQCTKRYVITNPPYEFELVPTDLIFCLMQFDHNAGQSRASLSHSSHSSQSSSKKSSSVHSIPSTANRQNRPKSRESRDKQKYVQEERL

Take `C[C@]12CC[C@@H]3c4ccc(O)cc4CC[C@H]3[C@@H]1CC[C@@H]2O` [estradiol, 17β-estradiol]: the “effect on growth of PC-3 (words)” value with PC-3 (100 nM 17β-estradiol) was “not”; in the assay with PC-3 (setting [5]), “no effect”. Besides, the “effect on growth of LNCaP (words)” value in the assay with LNCaP (100 nM 17β-estradiol) is “growth promoting effect”; in the assay on LNCaP (setting [5]), “increased proliferation; also recorded: increased its growth rate”. The “effect on growth of BPH-1 (words)” value in the assay with BPH-1 (100 nM 17β-estradiol) is “growth promoting effect”; in the assay with BPH-1 (setting [5]), “increased proliferation”.
Take `CC(C)(O)[C@H]1O[C@H]2CC[C@@]3(C)[C@@](O)(CC[C@H]4Cc5c([nH]c6ccccc56)[C@@]43C)C2=CC1=O` [paxillin]: the “inhibition of potassium channels in excised inside/out membrane patches of PC-3 cells” value in assay [1] was “inhibited”. Further, the “inhibition of potassium channels in excised inside/out membrane patches of BPH-1 cells” value in assay [2] is “not”.
“iberiotoxin (QFTDVDCSVSKECWSVCKDLFGVDRGKCMGKKCRCYQ; Iberiotoxin; UniProt P24663 1-37, looked up)”: in the assay with PC-3 (0.05 μM Iberiotoxin, OPTI-MEM + 0.4% Albu-max), the “reduction of the growth rate of PC-3” value is given as 10-15%. The “effect on growth of PC-3 (words)” value in the assay with PC-3 (50 nM iberiotoxin) is listed as “significantly decreased growth rate; also recorded: significant reduction of the growth rate; also recorded: significant growth inhibition; also recorded: could be reduced”. Moreover, the “effect on whole cell conductances of PC-3 cells” value in assay [3] is “clear inhibitory effect”. Besides, in assay [4], the “effect on whole cell conductances of BPH-1 cells” value is recorded as “no significant effects”. For the same molecule, the entries for the “effect on estradiol-stimulated growth of LNCaP” value in the assay with LNCaP and in the assay on LNCaP (listed as Iberiotoxin) were “completely reversed; also recorded: could be blocked” and “blocked the growth stimulus”, respectively. Also, the “effect on growth of LNCaP (words)” value in the assay on LNCaP (50 nM iberiotoxin) was “not and no significant effect and did not react”; in the assay on LNCaP (setting [6]), “no effect”. For the same molecule, the entries for the “effect on estradiol-stimulated growth of BPH-1” value in the assay on BPH-1 and in the assay on BPH-1 (listed as Iberiotoxin) were “completely reversed” and “blocked the growth stimulus”, respectively. Moreover, the “effect on growth of BPH-1 (words)” value in the assay on BPH-1 (50 nM iberiotoxin) is “not and no significant effect”; with BPH-1 (setting [6]) it was “no effect”.

(Values after US20070292528A1, “Kcnma1 as a Therapeutic Target in Cancer Treatment” (priority 2003, published 2007).)
